One data set concerns the target Ras-GTP (Homo sapiens, UniProt P01116, G12V). The experiment in a line: biochemical.
The target of another data set is T1, H-Ras(WT) (Homo sapiens, UniProt P01112).
T1 construct: purchased Origene (Rockville, Md.)
The data set is described as follows: FA binding of FITC-9A5 to H-Ras. The following applies: FITC-labeled peptide. The text has this:
(§1) Reagents for peptide synthesis were purchased from Peptides International (Louisville, Ky.), NovaBiochem (La Jolla, Calif.), Anaspec (San Jose, Calif.), Chem-Impex International Inc. (Wood Dale, Ill.), or Aapptec (Lousiville, Ky.). N-Hydroxysuccinimidyl biotin was purchased from Chem-Impex International (Wood Dale, Ill.) and N-(9-fluorenylmethoxycarbonyloxy)succinimide (Fmoc-OSu) from Advanced ChemTech. Phenyl isothiocyanate (PITC), isopropyl13-D-1-thiogalactopyranoside (IPTG), protease inhibitor cocktail tablets, ampicillin and kanamycin were purchased from Sigma-Aldrich. Cell proliferation kit (MTT) was purchased from Roche (Indianapolis, Ind.). Cell culture media, fetal bovine serum, penicillin-streptomycin, 0.25% trypsin-EDTA, DPBS (2.67 mM potassium chloride, 1.47 mM potassium phosphate monobasic, 137 mM sodium chloride, 8.06 mM sodium phosphate dibasic), streptavidin-coated Dynabeads M-280, Texas red N-hydroxysuccinimide ester, and tetramethylrhodamine (TMR) azide were purchased from Invitrogen (Carlsbad, Calif.). Anti-GST-Tb and Anti-HA d2 antibodies were purchased from Cisbio (Bedford, Mass.). Recombinant K-Ras WT, H-Ras WT, Rac1, RhoA and CDC42 were purchased from Origene (Rockville, Md.). Solvents and other chemical reagents were purchased from Sigma-Aldrich or VWR (West Chester, Pa.).

In the next data set the target is T2, bovine serum albumin (Bos taurus, UniProt P02769).
T2 construct: from tissue; host or cells: bovine serum (from the name only)
The data set is described as follows: FA binding of FITC-9A5 to control protein BSA.

For a further data set, the target named is T3, RhoA (Homo sapiens, UniProt P61586).
T3 construct: purchased Origene (Rockville, Md.)
The experiment in a line: FA binding of FITC-9A5 to recombinant RhoA.
Description: as §1

The target in a further data set is T4, Rac1 (Homo sapiens, UniProt P63000).
T4 construct: purchased Origene (Rockville, Md.)
The data set is described as follows: FA binding of FITC-9A5 to recombinant Rac1.
Description: as §1

For another data set, the target named is Ras-GPPNP (Homo sapiens, UniProt P01116, G12V). The data set is described as follows: biochemical.
In another data set the target is Ras-GDP (Homo sapiens, UniProt P01116, G12V). The experiment in a line: biochemical.

SMILES strings stand for the structures. pKd: −log10 of the molar value. Several values for one entry are separate records, joined by “and”; a condition that tells them apart may be missing. Equal values may be shown once. Square brackets hold non-standard residues; d marks the D form. Peptide text beside a SMILES is read from it. * marks the point of attachment. FITC = O=C1OC2(c3ccc(O)cc3Oc3cc(O)ccc32)c2ccc(NC(=S)*)cc21; Phe(4-F) = N[C@@H](Cc1ccc(F)cc1)C(=O)O; d2Nal = N[C@H](Cc1ccc2ccccc2c1)C(=O)O; dNle = CCCC[C@@H](N)C(=O)O

Consider 1 compound from patent US20170112896A1, “SMALL MOLECULE RAC OR RHO INHIBITORS” (Ohio State Innovation Foundation, priority 2014, published 2017).

T2 sequence (P02769 25-607): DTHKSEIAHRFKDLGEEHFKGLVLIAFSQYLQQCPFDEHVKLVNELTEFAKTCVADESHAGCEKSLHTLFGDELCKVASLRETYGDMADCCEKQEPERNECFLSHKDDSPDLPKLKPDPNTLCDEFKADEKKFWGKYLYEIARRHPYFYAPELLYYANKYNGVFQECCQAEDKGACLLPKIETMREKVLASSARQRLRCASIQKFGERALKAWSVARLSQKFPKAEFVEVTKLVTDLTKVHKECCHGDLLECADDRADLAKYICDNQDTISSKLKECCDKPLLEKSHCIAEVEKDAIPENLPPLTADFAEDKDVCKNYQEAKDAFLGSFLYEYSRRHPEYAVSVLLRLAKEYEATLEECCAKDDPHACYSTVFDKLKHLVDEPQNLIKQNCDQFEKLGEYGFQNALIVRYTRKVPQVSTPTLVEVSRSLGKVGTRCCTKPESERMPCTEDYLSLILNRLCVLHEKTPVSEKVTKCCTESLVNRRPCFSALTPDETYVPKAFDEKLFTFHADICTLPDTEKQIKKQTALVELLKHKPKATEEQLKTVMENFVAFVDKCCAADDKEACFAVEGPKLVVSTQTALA
Chain of Ras-GTP (P01116 1-185 isoform P01116-2 G12V): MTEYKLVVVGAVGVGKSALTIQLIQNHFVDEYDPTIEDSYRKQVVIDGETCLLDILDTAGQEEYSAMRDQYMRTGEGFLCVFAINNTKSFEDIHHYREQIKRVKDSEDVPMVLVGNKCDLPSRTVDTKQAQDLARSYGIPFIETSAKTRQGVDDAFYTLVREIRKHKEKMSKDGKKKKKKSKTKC
Chain of Ras-GPPNP (P01116 1-185 isoform P01116-2 G12V): as above
Chain of Ras-GDP (P01116 1-185 isoform P01116-2 G12V): as above
T3 sequence (P61586 whole entry): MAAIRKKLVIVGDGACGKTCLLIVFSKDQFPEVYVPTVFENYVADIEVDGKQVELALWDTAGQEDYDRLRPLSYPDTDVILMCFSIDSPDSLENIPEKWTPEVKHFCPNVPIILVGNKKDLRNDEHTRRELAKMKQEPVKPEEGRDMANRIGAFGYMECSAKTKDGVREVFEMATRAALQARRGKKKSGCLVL
T1 sequence (P01112 whole entry): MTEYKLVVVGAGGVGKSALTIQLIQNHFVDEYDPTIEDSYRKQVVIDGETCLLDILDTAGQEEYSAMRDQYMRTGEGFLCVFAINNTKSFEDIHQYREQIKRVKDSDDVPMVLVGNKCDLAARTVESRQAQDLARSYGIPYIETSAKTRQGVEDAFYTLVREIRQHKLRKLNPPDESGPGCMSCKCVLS
Description for Ras-GDP: (§2) To prepare Ras-GTP, purified K-Ras was incubated with 20 mM EDTA plus 2 mM GTP in PBS overnight at 4° C. After addition of 40 mM of MgCl2, the protein was dialyzed against PBS.
(§3) For cyclic peptides derived from single library beads (library screening), K-Ras protein (non-GST fusion, 0-20 μM) was incubated with the TMR-labeled peptide (50 or 100 nM) in 20 μL, of the blocking buffer for 2.5 h at 24° C. The FA values were measured on a Molecular Devices Spectramax M5 spectrofluorimeter, with excitation and emission wavelengths at 545 and 585 nm, respectively. Equilibrium dissociation constants (KD) were determined by plotting the FA values as a function of K-Ras concentration and fitting the data to the equation
(§4) FA analyses with resynthesized FITC-labeled peptides were similarly carried oμL, except that the excitation and emission wavelengths were at 494 and 520 nm, respectively.
Description for Ras-GPPNP: as §2, §3, §4
Description for Ras-GTP: as §2, §3, §4
Description for bovine serum albumin: The FA values were measured on a Molecular Devices Spectramax M5 spectrofluorimeter, with excitation and emission wavelengths at 545 and 585 nm, respectively. Equilibrium dissociation constants (KD) were determined by plotting the FA values as a function of K-Ras concentration and fitting the data to the equation
where Y is the measured anisotropy at a given K-Ras concentration x; L is the peptide concentration; Qb/Qf is the correction fact for dye-protein interaction; Amax is the maximum anisotropy at saturating K-Ras concentration; and Amin is the minimum anisotropy. FA analyses with resynthesized FITC-labeled peptides were similarly carried oμL, except that the excitation and emission wavelengths were at 494 and 520 nm, respectively.

A word on the pKd: it is the Kd on a negative log10 scale, so that one unit is a factor of ten. `CCCC[C@H]1NC(=O)[C@H](Cc2ccc(F)cc2)NC(=O)[C@H](CCCNC(=N)N)NC(=O)[C@@H](Cc2ccc3ccccc3c2)NC(=O)[C@H](CCCCNC(=S)Nc2ccc3c(c2)C(=O)OC32c3ccc(O)cc3Oc3cc(O)ccc32)NC(=O)[C@H](CCCNC(=N)N)NC(=O)[C@H](CCCNC(=N)N)NC(=O)[C@@H](C)NC(=O)[C@H]([C@@H](C)O)NC(=O)[C@H](Cc2c[nH]c3ccccc23)NC(=O)[C@H](CCC(N)=O)NC1=O` [FITC-9A5] (cyclo(K(FITC)[d2Nal]R[Phe(4-F)][dNle]QWT[dA]RR)): the pKd was 6.36 on Ras-GTP; 6.30 on H-Ras(WT); 4.52 and 4.51 on bovine serum albumin; 6.74 on RhoA; 6.60 on Rac1; 6.19 at Ras-GPPNP. On Ras-GDP, this compound gave a negative-log Kd (pKd) of 5.60. Also, the “cell permeability / intracellular fluorescence” value with A549 lung cancer cells was “intense, defuse fluorescence throughout the cytoplasm”.
